A short description of assay [1]: Induction of penile erection in male rats. It is filed as in vivo, rat.
Procedure: The ability of peptides of the present invention to induce penile erection (PE) in male rats were evaluated with selected peptides. Male Sprague-Dawley rats weighing 250-300 g were kept on a 12 hour on/off light cycle with food and water ad libitum. All behavioral studies were performed between 9 a.m. and 4 p.m. […] Rats are observed for one hour, and the number of yawns, grooming bouts and PEs are recorded in 10-minute bins.
Assay [2] can be described thus: Food intake and body weight change in rats. The note with it: for food intake / rate of change in body weight: rat feeding study, 0.3 and 1 mg/kg; for decrease in food consumption compared to control: rats. In kind it is in vivo, rat. The method, then:
Change in food intake and body weight was evaluated for selected peptides administered by intravenous (IV) or subcutaneous injection routes. Male Sprague-Dawley rats were obtained from Hilltop Lab Animals, Inc. (Scottsdale, Pa.) or other vendors. Animals were individually housed in conventional polystyrene hanging cages and maintained on a controlled 12 hour on/off light cycle. Water and pelleted food was provided ad libitum. The rats were dosed IV with vehicle or selected peptides (0.3 to 1.0 mg/kg), or dosed subcutaneously with vehicle or selected peptides (doses up to 30 mg/kg). […] The changes in body weight and food intake for the 48 hour and 72 hour periods after dosing can also be measured to determine reversal of changes in body weight and food intake effects back to baseline levels.

A further assay concerns the target hMC4-R (Homo sapiens (Human), UniProt P32245). Nature of the assay: Assay for agonist activity (cAMP accumulation in HEK-293 cells). The note with it: for Emax: HEK293; for functional classification at MC4-R: agonist = intrinsic activity 70% or higher, partial agonist 10-70%. In kind it is cell-based. (Cyclic AMP is a second messenger, typically raised through Gs and lowered through Gi signalling.)

The target of the next assay is hMC1-R (Homo sapiens (Human), UniProt Q01726). Nature of the assay: Functional assay for agonist activity at hMC1-R. It is filed as cell-based. The note with it: intrinsic activity.
hMC1-R, sequence (Q01726 whole entry): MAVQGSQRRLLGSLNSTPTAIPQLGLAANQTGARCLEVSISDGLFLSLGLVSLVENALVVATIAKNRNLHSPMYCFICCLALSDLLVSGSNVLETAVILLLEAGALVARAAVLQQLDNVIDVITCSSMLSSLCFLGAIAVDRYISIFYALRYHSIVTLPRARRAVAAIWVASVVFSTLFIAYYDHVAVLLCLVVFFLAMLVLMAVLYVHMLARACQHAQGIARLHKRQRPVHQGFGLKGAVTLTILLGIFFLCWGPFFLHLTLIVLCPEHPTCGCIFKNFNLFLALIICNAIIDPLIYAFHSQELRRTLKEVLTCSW
Setting [3] is: 1 mg/kg, 0-2, 0-4 and 0-20 hour periods.
[4] abbreviates: NDP-α-MSH is 100%, read-out: intrinsic activity at MC4-R.
Where [5] appears, read: intrinsic activity, read-out: hMC4-R Emax (%).

Where two headings read alike, the source gives them in different places. Peptide text beside a SMILES is read from it.

hMC4-R, sequence (P32245 whole entry): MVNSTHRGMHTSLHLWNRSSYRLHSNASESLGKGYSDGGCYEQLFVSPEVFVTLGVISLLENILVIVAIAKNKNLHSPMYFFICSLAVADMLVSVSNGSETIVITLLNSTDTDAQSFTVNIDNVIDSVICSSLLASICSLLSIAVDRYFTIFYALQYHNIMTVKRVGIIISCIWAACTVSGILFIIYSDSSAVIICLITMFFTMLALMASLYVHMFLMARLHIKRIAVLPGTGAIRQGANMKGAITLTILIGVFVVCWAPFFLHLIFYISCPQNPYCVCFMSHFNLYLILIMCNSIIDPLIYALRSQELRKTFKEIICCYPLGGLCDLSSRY
Procedure for hMC4-R: Accumulation of intracellular cAMP was examined as a measure of the ability of the peptides of the present invention to elicit a functional response in HEK-293 cells that express MC4-R. Confluent HEK-293 cells that express recombinant hMC4-R were detached from culture plates by incubation in enzyme-free cell dissociation buffer. Dispersed cells were suspended in Earle's Balanced Salt Solution containing 10 mM HEPES (pH 7.5), 1 mM MgCl2, 1 mM glutamine, 0.5% albumin and 0.3 mM 3-isobutyl-1-methyl-xanthine (IBMX), a phosphodiesterase inhibitor. […] Cells were exposed for 15 minutes at 37° C. to peptides of the present invention dissolved in DMSO (final DMSO concentration of 1%) at a concentration range of 0.05-5000 nM in a total assay volume of 200 μL. […] Data analysis was performed by nonlinear regression analysis with Graph-Pad Prism® software. The maximum efficacies of the test peptides of the present invention were compared to that achieved by the reference melanocortin agonist NDP-αMSH.

Consider `CC(=O)N[C@@H](CCCNC(=N)N)C(=O)N[C@H]1CC(=O)NCCCC[C@@H](C(N)=O)NC(=O)[C@H](Cc2c[nH]c3ccccc23)NC(=O)[C@H](CCCNC(=N)N)NC(=O)[C@@H](Cc2ccccc2)NC(=O)[C@H](Cc2c[nH]cn2)NC1=O` [Peptide No. 1, Ac-Arg-cyclo(Asp-His- D-Phe-Arg-Trp-Lys)- NH2], for which the “observed spontaneous erections compared to vehicle” value in assay [1] (IV, 0.3 or 1 mg/kg) was “statistically significant increase”. In assay [2], the food intake entry is listed as “reduce food intake” and the “rate of change in body weight” value is “decrease the rate of change in body weight”. Moreover, in assay [2] (0.3 mg/kg, 0-2, 0-4 and 0-20 hour periods), the “decrease in food consumption compared to control” value (“decrease in food consumption” for short) is on record as “statistically significant”. Moreover, in assay [2] (setting [3]), the “decrease in food consumption” value is “statistically significant”. Also, at hMC4-R (setting [4]), the Emax was 91%. The “functional classification at MC4-R” value at hMC4-R is “agonist”.
On to `CC(=O)N[C@@H](CCCNC(=N)N)C(=O)N[C@H]1CC(=O)NCCCC[C@@H](C(N)=O)NC(=O)[C@H](Cc2c[nH]c3ccccc23)NC(=O)[C@H](CCCNC(=N)N)NC(=O)[C@@H](Cc2ccccc2)NC(=O)[C@H](C(C)C)NC1=O` [Peptide No. 16, Ac-Arg-cyclo(Asp-Val- D-Phe-Arg-Trp-Lys)- NH2], for which the food intake result in assay [2] is recorded as “reduce food intake”. The “rate of change in body weight” value in assay [2] was “decrease the rate of change in body weight”. The “decrease in food consumption” value is on record as “statistically significant” in assay [2] (0.3 mg/kg, 0-2 and 0-4 hour periods); “statistically significant” in assay [2] (setting [3]). In addition, the Emax at hMC4-R (setting [4]) came out at 42%. The “functional classification at MC4-R” value on hMC4-R is recorded as “partial agonist”.
On to `CC(=O)N[C@@H](CCCNC(=N)N)C(=O)N[C@H]1CC(=O)NCCCC[C@@H](C(N)=O)NC(=O)[C@H](Cc2c[nH]c3ccccc23)NC(=O)[C@H](CCCNC(=N)N)NC(=O)[C@@H](Cc2ccccc2)NC(=O)[C@H](CCC(N)=O)NC1=O` [Peptide No. 32, Ac-Arg-cyclo(Asp-Gln- D-Phe-Arg-Trp-Lys)- NH2], for which the observed spontaneous erections result in assay [1] (subcutaneous, 1, 3 or 10 mg/kg) is on record as “increase in observed spontaneous erections”. For the same compound, the Emax on hMC4-R (setting [4]) amounted to 98%. Further, the “functional classification at MC4-R” value on hMC4-R is reported as “agonist”.
For the compound `CC(=O)N[C@H](CCCNC(=N)N)C(=O)N[C@H]1CC(=O)NCCCC[C@@H](C(N)=O)NC(=O)[C@H](Cc2c[nH]c3ccccc23)NC(=O)[C@H](CCCNC(=N)N)NC(=O)[C@@H](Cc2ccccc2)NC(=O)[C@H](CCC(N)=O)NC1=O` [compound 71, Ac-D-Arg-cyclo(Asp- Gln-D-Phe-Arg-Trp- Lys)-NH2], the values for the Emax at hMC1-R and at hMC4-R (setting [5]) were 88% and 89%, respectively.
For the compound `CC(=O)N[C@@H](CCCNC(=N)N)C(=O)N[C@H]1CCCC(=O)NCC[C@@H](C(N)=O)NC(=O)[C@H](Cc2c[nH]c3ccccc23)NC(=O)[C@H](CCCNC(=N)N)NC(=O)[C@@H](Cc2ccccc2)NC(=O)[C@H](Cc2c[nH]cn2)NC1=O` [compound 126, Ac-Arg-cyclo(hGlu-His- D-Phe-Arg-Trp-Dab)- NH2], the Emax at hMC4-R (setting [4]) came out at 101%. Besides, the “functional classification at MC4-R” value on hMC4-R is listed as “agonist”.
The matching figures for `CC(=O)N[C@@H](CCCNC(=N)N)C(=O)N[C@H]1CCCC(=O)NCC[C@@H](C(N)=O)NC(=O)[C@H](Cc2c[nH]c3ccccc23)NC(=O)[C@H](CCCNC(=N)N)NC(=O)[C@@H](Cc2ccccc2)NC(=O)[C@H](CCN)NC1=O` [compound 127, Ac-Arg-cyclo(hGlu-Dab- D-Phe-Arg-Trp-Dab)- NH2]: 98% and “agonist”.
For `CC(=O)N[C@@H](CCCNC(=N)N)C(=O)N[C@H]1CCNC(=O)CCC[C@@H](C(N)=O)NC(=O)[C@H](Cc2c[nH]c3ccccc23)NC(=O)[C@H](CCCNC(=N)N)NC(=O)[C@@H](Cc2ccccc2)NC(=O)[C@H](Cc2c[nH]cn2)NC1=O` [compound 128, Ac-Arg-cyclo(Dab-His- D-Phe-Arg-Trp-hGlu)- NH2], at hMC4-R (setting [4]), the Emax came out at 95%. For the same compound, the “functional classification at MC4-R” value on hMC4-R was “agonist”.
For the compound `CC(=O)N[C@@H](CCCNC(=N)N)C(=O)N[C@H]1CCNC(=O)CCC[C@@H](C(N)=O)NC(=O)[C@H](Cc2c[nH]c3ccccc23)NC(=O)[C@H](CCCNC(=N)N)NC(=O)[C@@H](Cc2ccccc2)NC(=O)[C@H](CCN)NC1=O` [compound 129, Ac-Arg-cyclo(Dab-Dab- D-Phe-Arg-Trp-hGlu)- NH2], the Emax at hMC4-R (setting [4]) is 96%. Moreover, the “functional classification at MC4-R” value at hMC4-R is given as “agonist”.
Turning to `CC(=O)N[C@@H](CCCNC(=N)N)C(=O)N[C@H]1CCCNC(=O)CC[C@@H](C(N)=O)NC(=O)[C@H](Cc2c[nH]c3ccccc23)NC(=O)[C@H](CCCNC(=N)N)NC(=O)[C@@H](Cc2ccccc2)NC(=O)[C@H](CCC(N)=O)NC1=O` [compound 150, Ac-Arg-cyclo(Orn-Gln- D-Phe-Arg-Trp-Glu)- NH2], at hMC1-R, the Emax was found to be 89%.
For the compound `CC(=O)N[C@H](CCCNC(=N)N)C(=O)N[C@H]1CCCNC(=O)CC[C@@H](C(N)=O)NC(=O)[C@H](Cc2c[nH]c3ccccc23)NC(=O)[C@H](CCCNC(=N)N)NC(=O)[C@@H](Cc2ccccc2)NC(=O)[C@H](CCC(N)=O)NC1=O` [compound 152, Ac-D-Arg-cyclo(Orn- Gln-D-Phe-Arg-Trp- Glu)-NH2], the Emax on hMC1-R worked out at 85%; at hMC4-R (setting [5]), 89%.
On to `CC(=O)N[C@@H](CCCNC(=N)N)C(=O)N[C@H]1CCCNC(=O)CC[C@@H](C(N)=O)NC(=O)[C@H](Cc2c[nH]c3ccccc23)NC(=O)[C@H](CCCNC(=N)N)NC(=O)[C@@H](Cc2ccccc2)NC(=O)[C@H](CC(N)=O)NC1=O` [compound 154, Ac-Arg-cyclo(Orn-Asn- D-Phe-Arg-Trp-Glu)- NH2], for which, at hMC1-R, the Emax was 87%.
As for `CC(=O)N[C@@H](CCCNC(=N)N)C(=O)N[C@H]1CCCCNC(=O)C[C@@H](C(N)=O)NC(=O)[C@H](Cc2c[nH]c3ccccc23)NC(=O)[C@H](CCCNC(=N)N)NC(=O)[C@@H](Cc2ccccc2)NC(=O)[C@H](CC(N)=O)NC1=O` [compound 155, Ac-Arg-cyclo(Lys-Asn- D-Phe-Arg-Trp-Asp)- NH2] (HELM PEPTIDE1{[ac].R.K.N.[dF].R.W.D.[am]}$PEPTIDE1,PEPTIDE1,3:R3-8:R3$$$V2.0), the Emax amounted to 91% on hMC1-R and 97% on hMC4-R (setting [5]).
With `CC(=O)N[C@H](CCCNC(=N)N)C(=O)N[C@H]1CCCNC(=O)CC[C@@H](C(N)=O)NC(=O)[C@H](Cc2c[nH]c3ccccc23)NC(=O)[C@H](CCCNC(=N)N)NC(=O)[C@@H](Cc2ccccc2)NC(=O)[C@H](CC(N)=O)NC1=O` [compound 156, Ac-D-Arg-cyclo(Orn- Asn-D-Phe-Arg-Trp- Glu)-NH2], at hMC1-R, the Emax is 81%.
On to `CC(=O)N[C@@H](CCCNC(=N)N)C(=O)N[C@H]1CCNC(=O)CCC[C@@H](C(N)=O)NC(=O)[C@H](Cc2c[nH]c3ccccc23)NC(=O)[C@H](CCCNC(=N)N)NC(=O)[C@@H](Cc2ccccc2)NC(=O)[C@H](CCC(N)=O)NC1=O` [compound 159, Ac-Arg-cyclo(Dab-Gln- D-Phe-Arg-Trp-hGlu)- NH2], for which the Emax on hMC1-R was 98%; on hMC4-R (setting [5]), 99%.
With `CC(=O)N[C@@H](CCCNC(=N)N)C(=O)N[C@H]1CCCC(=O)NCC[C@@H](C(N)=O)NC(=O)[C@H](Cc2c[nH]c3ccccc23)NC(=O)[C@H](CCCNC(=N)N)NC(=O)[C@@H](Cc2ccccc2)NC(=O)[C@H](CC(N)=O)NC1=O` [compound 160, Ac-Arg-cyclo(hGlu-Asn- D-Phe-Arg-Trp-Dab)- NH2] (HELM PEPTIDE1{[ac].R.[O=C([C@H](CCCC(=O)[*:3])N[*:1])[*:2]].N.[dF].R.W.[Dab].[am]}$PEPTIDE1,PEPTIDE1,3:R3-8:R3$$$V2.0), the Emax is 95% on hMC1-R and 98% on hMC4-R (setting [5]).
Turning to `CC(=O)N[C@@H](CCCNC(=N)N)C(=O)N[C@H]1CCC(=O)NCCC[C@@H](C(N)=O)NC(=O)[C@H](Cc2c[nH]c3ccccc23)NC(=O)[C@H](CCCNC(=N)N)NC(=O)[C@@H](Cc2ccccc2)NC(=O)[C@H](CC(N)=O)NC1=O` [compound 161, Ac-Arg-cyclo/(Glu-Asn- D-Phe-Arg-Trp-Orn)- NH2], the Emax at hMC1-R was 85%; at hMC4-R (setting [5]) it was 91%.
Consider `CC(=O)N[C@@H](CCCNC(=N)N)C(=O)N[C@H]1CCCCNC(=O)C[C@@H](C(N)=O)NC(=O)[C@H](Cc2ccc3ccccc3c2)NC(=O)[C@H](CCCNC(=N)N)NC(=O)[C@@H](Cc2ccccc2)NC(=O)[C@H](CC(N)=O)NC1=O` [compound 162, Ac-Arg-cyclo(Lys-Asn- D-Phe-Arg-Nal 2-Asp)- NH2] (HELM PEPTIDE1{[ac].R.K.N.[dF].R.[O=C([C@H](Cc1ccc2ccccc2c1)N[*:1])[*:2]].D.[am]}$PEPTIDE1,PEPTIDE1,3:R3-8:R3$$$V2.0), for which the Emax at hMC1-R came out at 89%; on hMC4-R (setting [5]), 82%.
